{"source": "paper PMC8869984", "about": "“Multifunctional Silver(I) Complexes with Metronidazole Drug Reveal Antimicrobial Properties and Antitumor Activity against Human Hepatoma and Colorectal Adenocarcinoma Cells” (Cancers, 2022)", "assay_in_all_cases": "micro-dilution broth method (MIC, MBC)", "key": {"P. acnes ATCC 11827": {"tested_on": "P. acnes ATCC 11827", "type": "cell-based, Propionibacterium acnes"}, "V. parvula ATCC 10790": {"tested_on": "V. parvula ATCC 10790", "type": "cell-based, Veillonella parvula"}, "H. pylori ATCC 43504": {"tested_on": "H. pylori ATCC 43504", "type": "cell-based"}, "P. intermedia ATCC 25611": {"tested_on": "P. intermedia ATCC 25611", "type": "cell-based"}, "[1]": {"tested_on": "S. epidermidis ATCC 12228", "type": "cell-based, Staphylococcus epidermidis"}, "B. cereus ATCC 10876": {"tested_on": "B. cereus ATCC 10876", "type": "cell-based, Bacillus cereus"}, "S. aureus ATCC 25923": {"tested_on": "S. aureus ATCC 25923", "type": "cell-based, Staphylococcus aureus"}, "F. nucleatum ATCC 25586": {"tested_on": "F. nucleatum ATCC 25586", "type": "cell-based, Fusobacterium nucleatum"}, "E. coli ATCC 25922": {"tested_on": "E. coli ATCC 25922", "type": "cell-based, Escherichia coli"}, "B. fragilis ATCC 10240": {"tested_on": "B. fragilis ATCC 10240", "type": "cell-based, Bacteroides fragilis"}, "A. israeli ATCC 10049": {"tested_on": "A. israeli ATCC 10049", "type": "cell-based, Actinomyces israelii"}, "K. pneumoniae ATCC 13883": {"tested_on": "K. pneumoniae ATCC 13883", "type": "cell-based, Klebsiella pneumoniae"}, "[2]": {"conditions": "P. acnes ATCC 11827, value in brackets"}, "[3]": {"conditions": "V. parvula ATCC 10790, value in brackets"}, "[4]": {"conditions": "H. pylori ATCC 43504, value in brackets"}, "[5]": {"conditions": "P. intermedia ATCC 25611, value in brackets"}, "[6]": {"conditions": "S. epidermidis ATCC 12228, value in brackets"}, "[7]": {"conditions": "B. cereus ATCC 10876, value in brackets"}, "[8]": {"conditions": "S. aureus ATCC 25923, value in brackets"}, "[9]": {"conditions": "F. nucleatum ATCC 25586, value in brackets"}, "[10]": {"conditions": "E. coli ATCC 25922, value in brackets"}, "[11]": {"conditions": "B. fragilis ATCC 10240, value in brackets"}, "[12]": {"conditions": "A. israeli ATCC 10049, value in brackets"}, "[13]": {"conditions": "K. pneumoniae ATCC 13883, value in brackets"}}, "data": [{"smiles": "O=[N+]([O-])[O-].[Ag+]", "note": "[AgNO3, Silver nitrate]", "values": [{"measurement": "MBC", "setting": "P. acnes ATCC 11827; P. acnes ATCC 11827", "result": 62.5, "unit": "mg/L"}, {"measurement": "MIC", "setting": "P. acnes ATCC 11827; P. acnes ATCC 11827", "result": 62.5, "unit": "mg/L"}, {"measurement": "MBC", "setting": "P. acnes ATCC 11827; [2]", "result": 0.37, "unit": "µM/mL"}, {"measurement": "MIC", "setting": "P. acnes ATCC 11827; [2]", "result": 0.37, "unit": "µM/mL"}, {"measurement": "MBC", "setting": "V. parvula ATCC 10790; V. parvula ATCC 10790", "result": 15.6, "unit": "mg/L"}, {"measurement": "MIC", "setting": "V. parvula ATCC 10790; V. parvula ATCC 10790", "result": 7.8, "unit": "mg/L"}, {"measurement": "MBC", "setting": "V. parvula ATCC 10790; [3]", "result": 0.09, "unit": "µM/mL"}, {"measurement": "MIC", "setting": "V. parvula ATCC 10790; [3]", "result": 0.049, "unit": "µM/mL"}, {"measurement": "MBC", "setting": "H. pylori ATCC 43504; H. pylori ATCC 43504", "result": 15.6, "unit": "mg/L"}, {"measurement": "MIC", "setting": "H. pylori ATCC 43504; H. pylori ATCC 43504", "result": 15.6, "unit": "mg/L"}, {"measurement": "MBC", "setting": "H. pylori ATCC 43504; [4]", "result": 0.09, "unit": "µM/mL"}, {"measurement": "MIC", "setting": "H. pylori ATCC 43504; [4]", "result": 0.09, "unit": "µM/mL"}, {"measurement": "MBC", "setting": "P. intermedia ATCC 25611; P. intermedia ATCC 25611", "result": 0.49, "unit": "mg/L"}, {"measurement": "MIC", "setting": "P. intermedia ATCC 25611; P. intermedia ATCC 25611", "result": 0.49, "unit": "mg/L"}, {"measurement": "MBC", "setting": "P. intermedia ATCC 25611; [5]", "result": 0.003, "unit": "µM/mL"}, {"measurement": "MIC", "setting": "P. intermedia ATCC 25611; [5]", "result": 0.003, "unit": "µM/mL"}, {"measurement": "MBC", "setting": "[1]; S. epidermidis ATCC 12228", "result": 15.6, "unit": "mg/L"}, {"measurement": "MIC", "setting": "[1]; S. epidermidis ATCC 12228", "result": 3.9, "unit": "mg/L"}, {"measurement": "MBC", "setting": "[1]; [6]", "result": 0.09, "unit": "µM/mL"}, {"measurement": "MIC", "setting": "[1]; [6]", "result": 0.025, "unit": "µM/mL"}, {"measurement": "MBC", "setting": "B. cereus ATCC 10876; B. cereus ATCC 10876", "result": 62.5, "unit": "mg/L"}, {"measurement": "MIC", "setting": "B. cereus ATCC 10876; B. cereus ATCC 10876", "result": 31.3, "unit": "mg/L"}, {"measurement": "MBC", "setting": "B. cereus ATCC 10876; [7]", "result": 0.37, "unit": "µM/mL"}, {"measurement": "MIC", "setting": "B. cereus ATCC 10876; [7]", "result": 0.185, "unit": "µM/mL"}, {"measurement": "MBC", "setting": "S. aureus ATCC 25923; S. aureus ATCC 25923", "result": 31.3, "unit": "mg/L"}, {"measurement": "MIC", "setting": "S. aureus ATCC 25923; S. aureus ATCC 25923", "result": 7.8, "unit": "mg/L"}, {"measurement": "MBC", "setting": "S. aureus ATCC 25923; [8]", "result": 0.185, "unit": "µM/mL"}, {"measurement": "MIC", "setting": "S. aureus ATCC 25923; [8]", "result": 0.049, "unit": "µM/mL"}, {"measurement": "MBC", "setting": "F. nucleatum ATCC 25586; F. nucleatum ATCC 25586", "result": 0.98, "unit": "mg/L"}, {"measurement": "MIC", "setting": "F. nucleatum ATCC 25586; F. nucleatum ATCC 25586", "result": 0.49, "unit": "mg/L"}, {"measurement": "MBC", "setting": "F. nucleatum ATCC 25586; [9]", "result": 0.006, "unit": "µM/mL"}, {"measurement": "MIC", "setting": "F. nucleatum ATCC 25586; [9]", "result": 0.003, "unit": "µM/mL"}, {"measurement": "MBC", "setting": "E. coli ATCC 25922; E. coli ATCC 25922", "result": 15.6, "unit": "mg/L"}, {"measurement": "MIC", "setting": "E. coli ATCC 25922; E. coli ATCC 25922", "result": 7.8, "unit": "mg/L"}, {"measurement": "MBC", "setting": "E. coli ATCC 25922; [10]", "result": 0.09, "unit": "µM/mL"}, {"measurement": "MIC", "setting": "E. coli ATCC 25922; [10]", "result": 0.049, "unit": "µM/mL"}, {"measurement": "MBC", "setting": "B. fragilis ATCC 10240; B. fragilis ATCC 10240", "result": 62.5, "unit": "mg/L"}, {"measurement": "MIC", "setting": "B. fragilis ATCC 10240; B. fragilis ATCC 10240", "result": 15.6, "unit": "mg/L"}, {"measurement": "MBC", "setting": "B. fragilis ATCC 10240; [11]", "result": 0.37, "unit": "µM/mL"}, {"measurement": "MIC", "setting": "B. fragilis ATCC 10240; [11]", "result": 0.09, "unit": "µM/mL"}, {"measurement": "MBC", "setting": "A. israeli ATCC 10049; A. israeli ATCC 10049", "result": 0.49, "unit": "mg/L"}, {"measurement": "MIC", "setting": "A. israeli ATCC 10049; A. israeli ATCC 10049", "result": 0.49, "unit": "mg/L"}, {"measurement": "MBC", "setting": "A. israeli ATCC 10049; [12]", "result": 0.003, "unit": "µM/mL"}, {"measurement": "MIC", "setting": "A. israeli ATCC 10049; [12]", "result": 0.003, "unit": "µM/mL"}, {"measurement": "MBC", "setting": "K. pneumoniae ATCC 13883; K. pneumoniae ATCC 13883", "result": 7.8, "unit": "mg/L"}, {"measurement": "MIC", "setting": "K. pneumoniae ATCC 13883; K. pneumoniae ATCC 13883", "result": 7.8, "unit": "mg/L"}, {"measurement": "MBC", "setting": "K. pneumoniae ATCC 13883; [13]", "result": 0.049, "unit": "µM/mL"}, {"measurement": "MIC", "setting": "K. pneumoniae ATCC 13883; [13]", "result": 0.049, "unit": "µM/mL"}]}]}
